Assay results from ChEMBL document CHEMBL3045681, “Synthesis and evaluation of new 1,2,3,4-tetrahydroisoquinoline analogs as antiglioma agents” (Med Chem Res, 2011).

Legend:
C6 [1] = assay: Cytotoxicity against Rattus norvegicus (rat) C6 cells after 4 days by cresylecth violet-staining method; assay type: functional, cell-based
[2] = Cytotoxicity against Rattus norvegicus Sprague-Dawley (rat) astrocytes after 4 days by cresylecth violet-staining method; assay type: cell-based, Astrocyte
C6 [3] = assay: Ratio of EDL-155 EC50 to compound EC50 for Rattus norvegicus (rat) C6 cells; assay type: functional
[4] = Rattus norvegicus, Sprague-Dawley, Astrocyte, 96 h, read-out: EC50

O=NN(CCCl)C(=O)NCCCl [CARMUSTINE]
EC50 (C6 [1]; Rattus norvegicus, C6, 96 h): 4.8 µM | EC50 [2, 4]: 54.8 µM

Cn1nnc2c(C(N)=O)ncn2c1=O [TEMOZOLOMIDE]
EC50 (C6 [1]; Rattus norvegicus, C6, 96 h): 16.5 µM | EC50 [2, 4]: 51.8 µM

COc1cc2c(c(OC)c1)C(Cc1ccc(-c3ccccc3OC)cc1)NCC2 (single isomer, unassigned; (+))
EC50 (C6 [1]; c6): 0.26 µM | EC50 ([2]; astrocyte, read-out: EC50): 13.1 µM

Oc1cc2c(cc1O)C(Cc1ccc(-c3ccccc3)cc1)NCC2 (racemic)
EC50 (C6 [1]; Rattus norvegicus, C6, 96 h): 1.5 µM | EC50 [2, 4]: 27.4 µM

Oc1cc(O)c2c(c1)CCNC2Cc1ccc(Br)cc1 (stereo not drawn)
EC50 (C6 [1]; Rattus norvegicus, C6, 96 h): 12.6 µM | EC50 [2, 4]: 23.9 µM

COc1cc2c(c(OC)c1)C(Cc1ccc(-c3ccccc3OC)cc1)NCC2 (stereo in doubt; (-)25)
EC50 (C6 [1]; c6): 5.39 µM | EC50 [2, 4]: 15.7 µM

COc1ccccc1-c1ccc(CC2NCCc3cc(O)cc(O)c32)cc1 (stereo not drawn)
EC50 (C6 [1]; Rattus norvegicus, C6, 96 h): 2.61 µM | EC50 [2, 4]: 15.7 µM

CC(C)(C)OC(=O)N1CCc2cc(O)cc(O)c2C1Cc1ccc(Br)cc1 (stereo not drawn)
EC50 (C6 [1]; Rattus norvegicus, C6, 96 h): 7.04 µM | EC50 [2, 4]: 9.97 µM

COc1cc2c(c(OC)c1)C(Cc1ccc(-c3ccccc3OC)cc1)N(C(=O)OC(C)(C)C)CC2 (stereo not drawn)
EC50 (C6 [1]; Rattus norvegicus, C6, 96 h): 59.7 µM | EC50 ([2]; astrocyte): Not Active

COc1ccccc1-c1ccc(CC2c3c(O)cc(O)cc3CCN2C(=O)OC(C)(C)C)cc1 (stereo not drawn)
EC50 (C6 [1]; Rattus norvegicus, C6, 96 h): 7.34 µM | EC50 [2, 4]: 67.5 µM

COc1cc2c(c(OC)c1)C(Cc1ccc(-c3ccccc3OC)cc1)NCC2.Cl (stereo in doubt; 25)
Ratio EC50 (C6 [3]): 2.4 | EC50 (C6 [1]; c6): 0.63 µM | EC50 ([2]; astrocyte, read-out: EC50): 10.8 µM

COc1cc2c(c(OC)c1)C(Cc1ccc(-c3ccccc3)cc1)N(C(=O)OC(C)(C)C)CC2 (stereo not drawn)
EC50 (C6 [1]; Rattus norvegicus, C6, 96 h): 7.54 µM | EC50 ([2]; astrocyte): Not Active

Oc1cc(O)c2c(c1)CCNC2Cc1ccc(-c2ccccc2)cc1 (stereo not drawn)
EC50 (C6 [1]; Rattus norvegicus, C6, 96 h): 2.09 µM | EC50 [2, 4]: 11.9 µM

COc1cc2c(c(OC)c1)C(Cc1ccc(-c3ccccc3)cc1)NCC2 (stereo not drawn)
EC50 (C6 [1]; Rattus norvegicus, C6, 96 h): 2.31 µM | EC50 [2, 4]: 8.95 µM

CC(C)(C)OC(=O)N1CCc2cc(O)cc(O)c2C1Cc1ccc(-c2ccccc2)cc1 (stereo not drawn)
EC50 (C6 [1]; Rattus norvegicus, C6, 96 h): 4.97 µM | EC50 [2, 4]: 8.58 µM

COc1cc2c(c(OC)c1)C(Cc1ccc(Br)cc1)N(C(=O)OC(C)(C)C)CC2 (stereo not drawn)
EC50 (C6 [1]; Rattus norvegicus, C6, 96 h): 10.1 µM | EC50 [2, 4]: 28.1 µM
